For assay [1], the target named is T1, H4R (Mus musculus, UniProt Q91ZY2).
T1 construct: endogenous in cells; host or cells: freshly sorted c-kit+ haematopoietic progenitor cells
T1 sequence (Q91ZY2 1-391): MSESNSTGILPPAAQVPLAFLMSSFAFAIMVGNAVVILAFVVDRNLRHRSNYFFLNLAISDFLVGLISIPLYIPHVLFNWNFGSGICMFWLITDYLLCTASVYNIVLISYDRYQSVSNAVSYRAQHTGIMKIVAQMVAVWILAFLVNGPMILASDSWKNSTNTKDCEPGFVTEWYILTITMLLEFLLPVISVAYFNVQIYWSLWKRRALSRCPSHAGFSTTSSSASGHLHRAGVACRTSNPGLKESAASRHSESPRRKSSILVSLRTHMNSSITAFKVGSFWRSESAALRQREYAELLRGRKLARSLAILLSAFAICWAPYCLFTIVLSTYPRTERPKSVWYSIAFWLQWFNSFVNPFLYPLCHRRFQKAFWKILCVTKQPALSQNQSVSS
As to the kind of experiment: Cell cycle status after H4R silencing with siRNA. Format: cell-based. The conditions noted are these: 10 μM; H4R siRNA transfected c-kit+ cells. Here is the method: H4R silencing was performed with freshly sorted c-kit^+ cells. For transfection, 3 μl of HiPerFect reagent (Qiagen; Courtaboeuf, France) and 4 μl ([…]) of human and 8 μl (80 pmol) of murine H4R siRNA, scrambled FITC-labeled or unconjugated control siRNAs (all from Santa Cruz Biotechnology) were incubated in 50 μl x-vivo medium (Cambrex; East Rutherford, N.J.) for 20 min at room temperature. The mixture was then added to 50 μl of cell suspension at a final concentration of 10^6 cells/ml and incubated for 20 h, when transfection efficiency was verified with scrambled FITC-conjugated siRNA. Cells were then centrifuged and resuspended at a concentration of 10^5 cells/ml in StemSpan medium with growth factor cocktail. The extinction of H4R protein expression was ascertained by FACS analysis after 24 h. After 3 days of culture with or without tritoqualine (10 μM) or Clobenpropit (10 μM) cells were counted and their viability was assessed by trypan blue exclusion. The cell cycle status was assessed after an overnight incubation.

Assay [2] relates to Mouse medullary cells C57B1/6 expressing H4R. As to the kind of experiment: Proliferation of Colony Forming Cells (CFC) in semi-solid media. Format: cell-based. The conditions noted are these: 10 μM, 7 days. Here is the method:
Using the assay described in Example 15, above, the effect of TRQ or CB on cells expressing H4R was tested. Mouse medullary cells C57B1/6 expressing H4R (50,000 cells/Petri dish) were incubated in a semi-solid media with haematopoietic growth factors (IL-3: 10 ng/ml) for 7 days with TRQ or CB.
Using the assay described in Example 15, above, the effect of TRQ or CB on cells expressing H4R was tested. Mouse medullary cells C57B1/6 expressing H4R (50,000 cells/Petri dish) were incubated in a semi-solid media with haematopoietic growth factors (IL-3: 10 ng/ml) for 7 days with a TRQ (racemic mixture of RR and SS isomers at 1 μM and 10 μM concentration); TRQ isomer E1 (10 μM concentration); TRQ isomer E2 (10 μM concentration) and CB (10 μM concentration).

For assay [3] the test system is unchanged. In words: Percentage of cells at G0/G1 phase, TRQ racemate and enantiomers with and without CB (Example 21). Format: cell-based. The conditions noted are these: 10 μM, compared to control (GF only). Here is the method: This experiment was conducted at two concentrations for all TRQ molecules (10 μM and 1 μM) in the presence and absence of CB (10 μM).
Using the assay described in Example 15, above, the effect of TRQ or CB on cells expressing H4R was tested. Mouse medullary cells C57B1/6 expressing H4R (50,000 cells/Petri dish) were incubated in a semi-solid media with haematopoietic growth factors such as IL-3 (10 ng/ml) for 7 days with a TRQ (racemic mixture of RR and SS isomers at 1 μM and 10 μM concentration); purified TRQ isomer E1 (10 μM and 1 μM concentration); purified TRQ isomer E2 (10 μM and 1 μM concentration) and CB (10 μM concentration). […] Similar results were shown with the purified TRQ isomers. In each experiment cells were incubated in the presence of growth factors (GF, FIG. 15).

Assay [4] deals with hematopoietic progenitor cells. As to the kind of experiment: CFU of hematopoietic progenitor cells in the presence of Ara-C. Format: cell-based. An excerpt:
Ara-C is a chemotherapeutic agent that kills cancel cells (or actively dividing cells).

The subject of assay [5] is human TF1 cells that express H4R. In words: TF1 cell proliferation assay (GM-CSF promoted). Format: cell-based. The conditions noted are these: Homo sapiens, TF-1, 72 h; 10 μM, 3 days, three separate assays (n=3). Here is the method:
Tritoqualine was tested on a cell proliferation assay using human TF1 cells that express H4R.
TF1 cell proliferation is promoted using granulocyte/macrophage colony-stimulating factor (GM-CSF). In this cell proliferation model H4R agonists inhibit cell proliferation. Clobenpropit (CB), a known H4R agonist at a dose of 10^−5M (10 μM) was used as a known cell proliferation inhibition control. […] Each experiment used 100,000 TF1 cells/mL incubated for three days with GM-CSF (10 ng/mL). After addition of TRQ in the range of 10^−5M (10 μM) to 10^−7 M (0.1 μM), and incubation for 3 days, cell proliferation was assessed and compared to that of 10 μM CB.

Assay [6] deals with ckit positive hematopoietic progenitor cells. As to the kind of experiment: ckit receptor expression on hematopoietic progenitor cells. Format: cell-based. The conditions noted are these: 10 μM. An excerpt:
In FIG. 16 the reference to CB-5, E1-5, and E2-5 is the same as above. CKit is a receptor on the surface of hematopoetic cells. Quantifying the ckit receptor is a measure of the differentiation from the progenitor state to the hematopoetic cell state.

Assay [7] is described as follows: Reintroduction of causal food allergen in food allergy patients. The assay is classed as in vivo, human. The conditions noted are these: baseline patients treated with one drug alone. An excerpt:
Allergens tested came from either […], or ALLERBIO.
The direct test with the Nutella® was strongly positive for allergy. This patient was hospitalized in two occasions for the same dramatic allergic reaction to Nutella® spread. Furthermore, the patient presented allergies to pneumoallergens.
Continuation of the above treatment for over 8 months afforded reversal of allergic and digestive symptoms due to food allergy.
The patient under study had survived two cases of anaphylactic shock due to ingestion of shrimps. […] Later the patient was able to ingest five shrimps without any local signs and no global reaction.
Baseline patients had signs of food allergies and the food allergy symptoms were not adequately managed with an H1 antagonist and cromoglycate. A group of 15 patients presenting signs of food allergies is tested with allergens such as the following: peanut, milk, tomato, potato, flour of wheat, soybean, fish, and shrimp. Allergens tested came from either […], or ALLERBIO.
All patients had history of hospitalization and reactions such as Quincke's edema and asthma crisis. Most of the causal allergens were peanut (six patients), egg (four patients) and soybean (five patients) of them (with other several positive food allergens at different degrees of reaction). […]

Entries after “also recorded” stand apart in the source; their conditions may differ.

Data on two compounds can be found in patent publication US8207188B2, “Treatment of diseases modulated by a H4 receptor agonist” (priority 2006, dated 2012).

The term inhibition denotes the percentage by which the read-out fell short of the control. Lower therefore signals a response near the control.

In the case of `NC(=NCc1ccc(Cl)cc1)SCCCc1cnc[nH]1` [CB, N′-[(4-chlorophenyl)methyl]-1-[3-(3H-imidazol-4-yl)propylthio]formamidine], the “activity inhibiting the cell cycle at the G0/G1 phase after H4R siRNA” value in assay [1] was “reversed”. Further, in assay [2] (Example 16, IL-3 10 ng/ml), the “inhibition of proliferation of CFC” value is “inhibits the proliferation of CFC”. Also, in assay [2] (Example 20), the “inhibitory activity of cell proliferation (CFC)” value is recorded as “inhibits the proliferation of CFC”. The “percentage of cells at the G0/G1 phase / inhibitory activity of cell proliferation” value in assay [3] was “increases the percentage of cells at the G0/G1 phase; also recorded: slightly better inhibitory activity of cell proliferation compared to that of Racemic TRQ”. Also, in assay [4], the “protection of cells / cell CFU in the presence of Ara-C” value is listed as “provides protection to the cells”. For the same compound, the inhibition at 10 µM in assay [5] is 23%. Moreover, the ckit expression result in assay [6] was “inhibits of ckit expression”.
On to `CC(C)(O)c1ccccc1CC[C@@H](SCC1(CC(=O)O)CC1)c1cccc(/C=C/c2ccc3ccc(Cl)cc3n2)c1` [Montelukast®], for which the “management of food allergy symptoms with the single drug” value in assay [7] is on record as “did not yield satisfactory management”.
